Experimental data taken from PMC8822458, “Synthesis and bioactivity of pyrrole-conjugated phosphopeptides” (Beilstein Journal of Organic Chemistry, 2022).
Where two headings read alike, the source gives them in different places. *1 amine or outer side, *2 acyl side, *3 side chain or, on linkers, in order; H or OH if unused. Where a SMILES comes first, the peptide text is derived from it. [ ]: non-standard residue; d: D form. The star is where a group is joined. d(pY) = N[C@H](Cc1ccc(OP(=O)(O)O)cc1)C(=O)O; pY = N[C@@H](Cc1ccc(OP(=O)(O)O)cc1)C(=O)O; d(pS) = N[C@H](COP(=O)(O)O)C(=O)O; Guanidinoacetyl = N=C(N)NCC(=O)*; X2 = Cn1cc(N[*:1])cc1C(=O)[*:2]; X1 = Cn1cc(N)cc1C(=O)*

Assays:
[1] = test system: HeLa cells; assay: MTT cell viability of HeLa cells
Protocol: We examined the cytotoxicity of the synthesized compounds by incubating them with HeLa cells because HeLa cells overexpress ALP and are widely available. By incubating 200 μM of each compound with HeLa cells for 24 hours, we employed MTT assay to determine the cell viability of the HeLa cells. […]
S3. Cel l culture and cell viability
HeLa cell line was purchased from American Type Culture Collection (ATCC, Manassas, VA, USA). HeLa cells were cultured in MEM medium with 100 U mL-1 penicillin and 100 μg mL-1 streptomycin. Cells were cultured at 37 °C in a humidified atmosphere of 5% CO 2.
MTT assay was used to determine the cytotoxicity of the compounds against HeLa cells.
Cells were seeded in 96-well plate at 1.0 × 10^5 cells/well for 24 hours followed by culture medium removal. Fresh culture medium containing different concentrations of compounds were then added. After incubated at 37 °C for 24/48/72 hours, the culture medium with compounds were replaced by fresh culture m edium plus 10 μL of MTT solution (5 mg/mL). After incubated at 37 °C for another 4 hours, 100 μL of SDS-HCl solution was added to stop the reduction and dissolve formazan formed. A DTX880 […]
Multimode Detector was used to measure the absorbance of each well at 595 nm, and cell viability was calculated as percentage relative to untreated cells. Data were […]

[2] = TEM morphology of peptide assemblies before and after ALP; format: physicochemical; conditions: 400 μM and 200 μM, PBS buffer pH 7.4
Description: Figure 3 A) TEM images of 1 before and after addition of ALP (0.5 U/mL) in PBS buffer (pH 7.4). Scale bar is 100 nm. Figure 3A was reprinted with permission from https://pubs.acs.org/doi/10.1021/bm5010355, Copyright 2014 American Chemical Society. This content is not subjected to CC-BY 4.0. Permission requests related to the material excerpted should be directed to the ACS. […] Scale bar is 200 nm.
Figure S1. Cell viability of HeLa cells treated with different compounds.
S4. TEM sample preparation
400-mesh copper grids coated with continuous thick carbon film (~35 nm) were glow discharged, on which 3 μL of samples were placed. After washed with ddH2O and uranyl acetate (UA), the sample-loaded grids were stained with UA. The residual UA was removed by filter paper and then air-dried.

[3] = Circular dichroism of assemblies before and after ALP; format: physicochemical; conditions: circular dichroism before and after ALP (Figure S34)
Description: In addition to the TEM images, we used circular dichroism (CD) to reveal the secondary structures of the assemblies before and after enzymatic action.

[4] = set-up: method as in PMID 25230147; conditions: TEM, ALP 0.5 U/mL, PBS buffer pH 7.4; cited from earlier work

Cn1cc(N)cc1C(=O)Nc1cc(C(=O)Nc2cc(C(=O)N[C@H](Cc3ccccc3)C(=O)N[C@H](Cc3ccccc3)C(=O)N[C@H](Cc3ccc(OP(=O)(O)O)cc3)C(=O)O)n(C)c2)n(C)c1 [2b]
Cell viability of HeLa cells ([1]; 24 h, 200 μM): 142.6%

Cn1cc(N)cc1C(=O)NCC(=O)NCC(=O)NCC(=O)N[C@H](Cc1ccccc1)C(=O)N[C@H](Cc1ccccc1)C(=O)N[C@H](Cc1ccc(OP(=O)(O)O)cc1)C(=O)O [2f, Py-GGGffpy] (X1-GGG[dF][dF][d(pY)]-OH)
Cell viability of HeLa cells ([1]; 24 h, 200 μM): 92.8%

Cn1cc(NC(=O)c2cc(N)cn2C)cc1C(=O)NCC(=O)NCC(=O)NCC(=O)N[C@@H](Cc1ccccc1)C(=O)N[C@@H](Cc1ccccc1)C(=O)N[C@@H](Cc1ccc(OP(=O)(O)O)cc1)C(=O)O [3a] (X1-[X2]GGGFF[pY]-OH)
Cell viability of HeLa cells ([1]; 24 h, 200 μM): 86.0%

Cn1cc(NC(=O)c2cc(NC(=O)c3cc(N)cn3C)cn2C)cc1C(=O)NCC(=O)NCC(=O)NCC(=O)N[C@@H](Cc1ccccc1)C(=O)N[C@@H](Cc1ccccc1)C(=O)N[C@@H](Cc1ccc(OP(=O)(O)O)cc1)C(=O)O [3b] (X1-[X2][X2]GGGFF[pY]-OH)
Cell viability of HeLa cells ([1]; 24 h, 200 μM): 97.2%

Cn1cc(NC(=O)c2cc(N)cn2C)cc1C(=O)NCC(=O)NCC(=O)NCC(=O)N[C@H](Cc1ccccc1)C(=O)N[C@H](Cc1ccccc1)C(=O)N[C@H](COP(=O)(O)O)C(=O)O [4a] (X1-[X2]GGG[dF][dF][d(pS)]-OH)
Change of morphology of the assemblies after ALP ([2]; 1 U/mL ALP, 24 h): little change in the morphology
Morphology of the assemblies before ALP [2]: networks of nanoparticles
Change of CD signal upon ALP treatment [3]: merely slight changes
Cell viability of HeLa cells ([1]; MTT, 200 μM, 24 h, 37 °C, absorbance 595 nm, relative to untreated cells, n = 3 wells): 69.2%
Cell viability of HeLa cells ([1]; MTT, 400 μM, day 1, n = 3 wells): 72.3%
Inhibition of HeLa cell proliferation (in words) ([1]; MTT, 20 to 400 μM, day 2 and 3): largely vanishes

Cn1cc(NC(=O)CNC(=N)N)cc1C(=O)NCC(=O)NCC(=O)NCC(=O)N[C@H](Cc1ccccc1)C(=O)N[C@H](Cc1ccccc1)C(=O)N[C@H](Cc1ccc(OP(=O)(O)O)cc1)C(=O)O [10a] (Guanidinoacetyl-[X2]GGG[dF][dF][d(pY)]-OH)
Cell viability of HeLa cells ([1]; 24 h, 200 μM): about 70%

Cn1cc(NC(=O)c2cc(NC(=O)CNC(=N)N)cn2C)cc1C(=O)NCC(=O)NCC(=O)NCC(=O)N[C@H](Cc1ccccc1)C(=O)N[C@H](Cc1ccccc1)C(=O)N[C@H](Cc1ccc(OP(=O)(O)O)cc1)C(=O)O [10b] (Guanidinoacetyl-[X2][X2]GGG[dF][dF][d(pY)]-OH)
Cell viability of HeLa cells ([1]; 24 h, 200 μM): about 70%

O=C(Cc1ccc2ccccc2c1)N[C@H](Cc1ccccc1)C(=O)N[C@H](Cc1ccccc1)C(=O)N[C@H](Cc1ccc(OP(=O)(O)O)cc1)C(=O)O [compound 1, Nap-ffpy, reference compound]
Change of morphology of the assemblies after ALP [4]: morphological transition from nanoparticles of 1 to networks of nanofibers
Change of CD signal upon ALP treatment [3]: significant change
Inhibition / compatibility with HeLa cells (in words) ([1]; 400 μM): significantly inhibits
Inhibition of HeLa cell proliferation (in words) ([1]; MTT, 200 μM, day 3): begins to reduce cell viability
Inhibition of HeLa cell proliferation (in words) ([1]; MTT, concentrations lower than 100 μM, over 3 days): hardly inhibits

Cn1cc(NC(=O)OC(C)(C)C)cc1C(=O)Nc1cc(C(=O)N[C@H](Cc2ccccc2)C(=O)N[C@H](Cc2ccccc2)C(=O)N[C@H](Cc2ccc(OP(=O)(O)O)cc2)C(=O)O)n(C)c1 [compound 9]
Cell viability of HeLa cells ([1]; 24 h, 200 μM): about 70%
